Assay results: ChEMBL document CHEMBL3259738, “Discovery of substituted benzamides as follicle stimulating hormone receptor allosteric modulators” (Bioorg Med Chem Lett, 2014)
Converted amounts (≈) assume the structure as drawn.

Tests used:
[1] = molecular target: T1, Follicle-stimulating hormone receptor (Homo sapiens) (UniProt P23945); experiment: Positive allosteric modulation of human FSH receptor expressed in CHO cells assessed as effect on FSH-induced cAMP accumulation at 12 uM after 1 hr by HTRF assay relative to FSH; assay type: functional, cell-based
T1 sequence (whole entry): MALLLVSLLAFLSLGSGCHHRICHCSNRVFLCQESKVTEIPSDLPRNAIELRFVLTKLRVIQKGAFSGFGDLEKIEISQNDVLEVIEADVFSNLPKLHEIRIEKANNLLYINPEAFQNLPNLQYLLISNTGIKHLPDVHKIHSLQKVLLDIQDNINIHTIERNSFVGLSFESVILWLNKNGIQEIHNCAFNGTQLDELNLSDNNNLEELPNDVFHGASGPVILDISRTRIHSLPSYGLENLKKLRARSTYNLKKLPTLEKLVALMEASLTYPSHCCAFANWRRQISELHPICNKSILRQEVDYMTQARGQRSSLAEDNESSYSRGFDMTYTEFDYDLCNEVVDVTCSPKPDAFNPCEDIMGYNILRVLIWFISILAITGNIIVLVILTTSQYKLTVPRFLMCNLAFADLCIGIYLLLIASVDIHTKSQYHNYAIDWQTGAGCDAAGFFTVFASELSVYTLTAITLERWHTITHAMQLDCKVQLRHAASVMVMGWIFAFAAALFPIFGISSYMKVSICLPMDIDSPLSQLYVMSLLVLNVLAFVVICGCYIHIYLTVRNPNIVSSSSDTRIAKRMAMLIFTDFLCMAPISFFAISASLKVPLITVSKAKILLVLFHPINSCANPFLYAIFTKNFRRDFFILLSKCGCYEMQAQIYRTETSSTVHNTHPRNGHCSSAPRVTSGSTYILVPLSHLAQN

[2] = Clearance in rat microsomes; assay type: ADME
[3] = Induction of estradiol production in rat primary granulosa cells after 24 hrs by ELISA; assay type: functional
[4] = Induction of estradiol production in rat primary granulosa cells after 24 hrs by ELISA relative to FSH; assay type: functional
[5] = Volume of distribution at steady state in immature Sprague-Dawley rat at 0.2 mg/kg, iv; assay type: ADME, organism-based; design: dose 0.2 mg/kg, route intravenous; conditions: in vivo, read-out: Vdss
[6] = Clearance in human microsomes; assay type: ADME
[7] = Oral bioavailability in immature Sprague-Dawley rat at 0.5 mg/kg; assay type: ADME, organism-based; conditions: in vivo
[8] = Clearance in immature Sprague-Dawley rat at 0.2 mg/kg, iv; assay type: ADME, organism-based; design: dose 0.2 mg/kg, route intravenous; conditions: in vivo
[9] = molecular target: T2, Follicle-stimulating hormone receptor (Homo sapiens, UniProt P23945); experiment: Positive allosteric modulation of human FSH receptor expressed in CHO cells assessed as effect on FSH-induced cAMP accumulation after 1 hr by HTRF assay; assay type: functional, cell-based
T2 sequence (P23945 whole entry): T1 sequence (whole entry)

[10] = molecular target: T1, Follicle-stimulating hormone receptor (Homo sapiens); experiment: Positive allosteric modulation of human FSH receptor expressed in CHO cells assessed as effect on FSH-induced cAMP accumulation at 50 uM after 1 hr by HTRF assay relative to FSH; assay type: functional, cell-based
[11] = Aqueous solubility of the compound at pH 7.4; assay type: physicochemical

SMILES | microsomal CLint [2] [µL/min/mg] | microsomal CLint [6] [µL/min/mg] | EC50 [9] [µM] | Activity [10] [%] | also measured
Cc1ccccc1N1CCN(c2ccc(C(=O)N3CCC(N4CCCC4=O)CC3)cc2NC(=O)c2ccco2)CC1 | – | – | – | – | Activity [1]: 40%
Cc1ccccc1N1CCN(c2ccc(C(=O)N[C@@H]3CCC[C@@H](O)[C@H]3O)cc2NC(=O)c2coc(C3CC3)n2)CC1 | 13 | 72 | 0.053 | – | EC50 [3]: 0.005 µM; Efficacy [4]: 81%; Vd [5]: 1.65 L/kg; bioavailability [7]: 23%; clearance [8]: 3.41 mL/min/kg
Cc1ccccc1N1CCN(c2ccc(C(=O)NCCCN3CCCC3=O)cc2NC(=O)c2coc(C3CC3)n2)CC1C (configuration not stated) | – | – | – | 36 | –
Cc1ccccc1N1CCN(c2ccc(C(=O)NCCCN3CCCC3=O)cc2NC(=O)c2cccnc2)CC1 | – | – | – | – | Activity [1]: 37%
Cc1ccccc1N1CCN(c2ccc(C(=O)NCCCc3nn[nH]n3)cc2NC(=O)c2coc(C3CC3)n2)CC1 | 18 | 20 | 0.089 | – | EC50 [3]: 0.17 µM; Efficacy [4]: 78%; Vd [5]: 5.46 L/kg; bioavailability [7]: 21%; solubility [11]: 160 µM (≈ 88.9 µg/mL); clearance [8]: 13.2 mL/min/kg
Cc1ccccc1N1CCN(c2ccc(C(=O)NCc3cccc(C(N)=O)c3)cc2NC(=O)c2ccco2)CC1 | 31 | 54 | 0.046 | – | –
Cc1ccc(N2CCN(c3ccc(C(=O)NCCCN4CCCC4=O)cc3NC(=O)c3coc(C4CC4)n3)CC2)cc1 | – | – | – | 13 | –
Cc1ccccc1N1CCN(c2ccc(CNCCCN3CCCC3=O)cc2NC(=O)c2coc(C3CC3)n2)CC1 | – | – | – | – | Activity [1]: 4.5%
Cc1ccccc1N1CCN(c2ccc(C(=O)NCCCN3CCCC3=O)cc2NC(=O)c2ccncc2)CC1 | – | – | – | – | Activity [1]: 34%
Cc1ccccc1N1CCN(c2ccc(C(=O)NCCCN3C(=O)CCC3=O)cc2NC(=O)c2ccco2)CC1 | 38 | 33 | 0.184 | – | –
Cc1ccccc1N1CCN(c2ccc(C(=O)NCCCN3CCCC3=O)cc2NC(=O)c2coc(C3CC3)n2)CC1 | 225 | 260 | 0.099 | – | –
Cc1ccccc1N1CCN(c2ccc(C(=O)NCCCN3CCCC3=O)cc2NS(=O)(=O)c2ccco2)CC1 | – | – | – | – | Activity [1]: 10%

Continued, in another order:

microsomal CLint [2] [µL/min/mg] | microsomal CLint [6] [µL/min/mg] | EC50 [9] [µM] | Activity [10] [%] | SMILES | also measured
233 | 312 | – | – | Cc1ccccc1N1CCN(c2ccc(C(=O)NCCCN3CCCC3=O)cc2NC(=O)c2ccco2)CC1 | –
– | – | – | 20 | COc1ccccc1N1CCN(c2ccc(C(=O)NCCCN3CCCC3=O)cc2NC(=O)c2ccco2)CC1 | –
– | – | – | 1 | Cc1ccccc1C1CCN(c2ccc(C(=O)NCCCN3CCCC3=O)cc2NC(=O)c2ccco2)CC1 | –
– | – | – | 20 | O=C(NCCCN1CCCC1=O)c1ccc(N2CCN(c3ccccn3)CC2)c(NC(=O)c2ccco2)c1 | –
– | – | – | 1 | O=C(NCCCN1CCCC1=O)c1ccc(N2CCNCC2)c(NC(=O)c2ccco2)c1 | –
25 | 59 | 0.028 | – | Cc1ccccc1N1CCN(c2ccc(C(=O)NCCCN3CCOC3=O)cc2NC(=O)c2ccco2)CC1 | –
